Experiments:
corn [1] = experiment: Example 25, greenhouse post-emergence test: Antidote Nos. 1 and 2 against Herbicide Nos. 1-3; type: in vivo, Corn (Pioneer 3424 variety); conditions: for % Inhibition Corn: no herbicide; for inhibition at 0.25 g/ha / inhibition at 0.74 g/ha / inhibition at 2.5 g/ha / inhibition at 0.07 g/ha: Zea mays
Description: Additional tests were conducted in the greenhouse in order to evaluate the antidotal efficacy of Antidote Nos. 1 (dichlormid) and 2 (naphthalic anhydride) in protecting corn from the herbicidal activity of Herbicide Nos. 1-3 (i.e., NC-319, NC-319 EX and NC-311, respectively). The chemicals were tested in both preemergence and post-emergence modes of application. The herbicides were prepared and applied as wettable powders; dichlormid was applied as an emulsifiable concentrate, while the naphthalic anhydride was applied as a coating on the corn seed prior to planting.
Corn seeds (Pioneer 3424 variety) were planted in alluvial soil containing compost and fertilizer in pots 12 cm. in diameter. Test chemicals were applied with a spray gun at the spray volume rate of 11.2 l/ha at the time of seeding in the preemergence tests and seven (7) days after seeding in the post-emergence tests, when the check (control) plants were at the 16-20 cm., 3.0-3.2 leaf stage, and naphthalic anhydride coated seed grown plants were at the 14-16 cm., 2.8-3.0 leaf stage.
Test data from the preemergence tests are shown in Table 25A and from the post-emergence tests in Table 25B. In the tables, the concentration of chemicals is shown in terms of active ingredient in grams per hectare (G/ha); concentrations of the naphthalic anhydride were not measured per se, but were present as in conventional, normally-coated applications. Corn injury is shown in terms of percent inhibition of growth.

[2] = test system: barnyardgrass (Echinochloa crusgalli); experiment: Example 3, Procedure I: antidotes against Herbicide No. 1; type: in vivo
Description: (§1) Containers were filled and compacted with a fumigated silt loam top soil to a depth of about 1.3 cm from the top of the container. A first container was designated as an untreated control, a second container was designated as a herbicide control, and a third container was designated as a herbicide + antidote test container. Each of the containers was seeded with a crop species. A measured amount of herbicide dispersed or dissolved in acetone was applied to a measured quantity of soil. To this same quantity of soil treated with herbicide, there was added a measured amount of antidote dispersed or dissolved in acetone. The quantity of soil treated with the herbicide and antidote was thoroughly mixed to incorporate the herbicide and antidote in the soil uniformly. The seed bed in the third container of soil was covered with the soil treated with the herbicide and antidote and the container was leveled. For each test series, the seed beds of the first and second containers were likewise covered by soil layers. the cover layer of the first container was not treated with herbicide or antidote.
(§2) The containers were then placed on a bench in a greenhouse and sub-irrigated as required for the duration of the test. […] Plant response is measured in terms of percent injury. Antidote efficacy is indicated as the difference in plant injury by the herbicide(s) without the antidote and with the antidote.
(§3) In the series of greenhouse tests described below, for routine screening purposes the herbicide/antidote compositions were tested in crop/weed combinations involving corn as the crop and either or both of the weeds barnyardgrass (Echinochloa crusgalli), a monocotyledonous weed, and velvetleaf (Abutilon theophrasti), a dicotyledonous weed. In the tables below, these weeds are indicated by the symbols "BYG" and "VL", respectively.
This example details the results of tests with Antidote Nos. 12, 15 and 16 to safen Herbicide No. 1 over application rates ranging from 4.48 kg/ha down to 0.56 kg/ha, in corn in the presence of barnyardgrass. Procedure I described above was used in these tests.

[3] = test system: barnyardgrass (Echinochloa crusgalli); experiment: Example 5, Procedure I: Herbicide No. 1 + alachlor (No. 7) with Antidote Nos. 15 and 16; type: in vivo
Description: as §1, §2, §3
(§4) This example describes tests with Antidote Nos. 15 and 16 to safen Herbicide No. 1 according to Procedure I using corn and the weeds barnyardgrass and velvetleaf as the test plants.
(§5) In the tests described in this example, the same procedure described in Example 4 was performed simultaneously therewith and under the same conditions, except that a co-herbicide, alachlor, was included in the same composition with Herbicide No. 1 and Antidote Nos. 15 and 16. Alachlor (Herbicide No. 7 herein) is the active ingredient in the commercial product LASSO® herbicide.

[4] = test system: velvetleaf (Abutilon theophrasti); experiment: as above; type: in vivo
Description: as §1, §2, §3, §4, §5

corn [5] = experiment: Example 26, field trials, pre-plant incorporation (PPI): corn growth reduction; type: in vivo; conditions: for maximum injury level (GR) / corn growth reduction (GR): PPI
Description: In order to better understand and to confirm the results of greenhouse tests with herbicidal compositions comprising representative compounds according to Formula I and an antidote with and without a co-herbicide, a large number of field trials were conducted. This example provides a summary of those field trials.
The primary purpose of the field trials summarized herein was to ascertain the amount of corn injury caused by a compound according to Formula I. viz. Herbicide No. 1, with and without a co-herbicide of the α-chloroacetanilide class, viz., Herbicide Nos. 6 and 7, and the extent that any corn injury could be safened by a dichloroacetamide antidotal compound, viz., Antidote No. 15.
Corn injury is generally expressed, in broad terms, in stand reduction, growth reduction, malformed plants and other more specific effects. For purposes of the summary here, the results of a plurality of field trials are expressed in terms of growth reduction (GR), i.e., a significant reduction in plant height of the corn stand. A common criteria for commercially-acceptable corn injury is an amount equal to or less than 10% malformed plants or stand reduction and for present reporting purposes, no greater than about 15% growth reduction. The corn injury/safening described for these field trials refers to commercially-unacceptable to commercially-acceptable performance.
In the field trials from a wide distribution of trial locations, soil types (all having in excess of 2% organic matter), climatic effects, etc., the test chemicals were applied as tank mixes in various modes of application, i.e., pre-plant incorporation (PPI) and preemergence surface application (PRE). Test plots were small plots with three replications in a randomized complete block design. Observations were made and recorded in a period of from 31-50 days after treatment.

[6] = Herbicide No.1 4.48 + No.7 0.56 kg/ha + antidote 0.56 kg/ha
[7] = Herbicide No.1 4.48 + No.7 0.56 kg/ha + antidote 2.24 kg/ha
[8] = Herbicide No.1 4.48 + No.7 2.24 kg/ha + antidote 0.56 kg/ha
[9] = Herbicide No.1 4.48 + No.7 2.24 kg/ha + antidote 2.24 kg/ha
[10] = Herbicide No.1 6.72 + No.7 0.56 kg/ha + antidote 0.56 kg/ha
[11] = Herbicide No.1 6.72 + No.7 0.56 kg/ha + antidote 2.24 kg/ha
[12] = Herbicide No.1 6.72 + No.7 2.24 kg/ha + antidote 0.56 kg/ha
[13] = Herbicide No.1 6.72 + No.7 2.24 kg/ha + antidote 2.24 kg/ha

Compound: C=CCN(CC=C)C(=O)C(Cl)Cl [compound 1]
- % Inhibition Corn (corn [1]; Antidote alone (rate printed as -)): 1.4%
- inhibition at 0.25 g/ha (corn [1]; Antidote at 7.41 G/ha with Herbicide No. 1 at 0.25 G/ha): 16.1%
- inhibition at 0.74 g/ha (corn [1]; Antidote at 7.41 G/ha with Herbicide No. 1 at 0.74 G/ha): 16.3%
- inhibition at 2.5 g/ha (corn [1]; Antidote at 7.41 G/ha with Herbicide No. 1 at 2.5 G/ha): 22.4%
- inhibition at 0.25 g/ha (corn [1]; Antidote at 7.41 G/ha with Herbicide No. 2 at 0.25 G/ha): 17.6%
- inhibition at 0.74 g/ha (corn [1]; Antidote at 7.41 G/ha with Herbicide No. 2 at 0.74 G/ha): 15.9%
- inhibition at 2.5 g/ha (corn [1]; Antidote at 7.41 G/ha with Herbicide No. 2 at 2.5 G/ha): 23.7%
- inhibition at 0.07 g/ha (corn [1]; Antidote at 7.41 G/ha with Herbicide No. 3 at 0.07 G/ha): 39.8%
- inhibition at 0.25 g/ha (corn [1]; Antidote at 7.41 G/ha with Herbicide No. 3 at 0.25 G/ha): 73.9%
- inhibition at 0.74 g/ha (corn [1]; Antidote at 7.41 G/ha with Herbicide No. 3 at 0.74 G/ha): 73.1%

Compound: CC1(C)OC(c2ccco2)CN1C(=O)C(Cl)Cl (stereo not drawn) [compound 15]
- % Injury BYG ([2]; Herb. No. 1 0.56 kg/ha + antidote 0.56 kg/ha): 50%
- % Injury BYG ([2]; Herb. No. 1 0.56 kg/ha + antidote 2.24 kg/ha): 35%
- % Injury BYG ([2]; Herb. No. 1 0.56 kg/ha + antidote 8.96 kg/ha): 10%
- % Injury BYG ([2]; Herb. No. 1 1.12 kg/ha + antidote 0.56 kg/ha): 75%
- % Injury BYG ([2]; Herb. No. 1 1.12 kg/ha + antidote 2.24 kg/ha): 60%
- % Injury BYG ([2]; Herb. No. 1 1.12 kg/ha + antidote 8.96 kg/ha): 60%
- % Injury BYG ([2]; Herb. No. 1 2.24 kg/ha + antidote 0.56 kg/ha): 60%
- % Injury BYG ([2]; Herb. No. 1 2.24 kg/ha + antidote 2.24 kg/ha): 70%
- % Injury BYG ([2]; Herb. No. 1 2.24 kg/ha + antidote 8.96 kg/ha): 50%
- % Injury BYG ([2]; Herb. No. 1 4.48 kg/ha + antidote 0.56 kg/ha): 75%
- % Injury BYG ([2]; Herb. No. 1 4.48 kg/ha + antidote 2.24 kg/ha): 70%
- % Injury BYG ([2]; Herb. No. 1 4.48 kg/ha + antidote 8.96 kg/ha): 80%
- % Injury BYG ([2]; antidote 8.96 kg/ha alone, no herbicide): 0%
- % Injury BYG [3, 6]: 99%
- % Injury BYG [3, 7]: 95%
- % Injury BYG [3, 8]: 100%
- % Injury BYG [3, 9]: 100%
- % Injury BYG [3, 10]: 99%
- % Injury BYG [3, 11]: 99%
- % Injury BYG [3, 12]: 100%
- % Injury BYG [3, 13]: 100%
- % Injury VL [4, 6]: 95%
- % Injury VL [4, 7]: 95%
- % Injury VL [4, 8]: 98%
- % Injury VL [4, 9]: 95%
- % Injury VL [4, 10]: 95%
- % Injury VL [4, 11]: 99%
- % Injury VL [4, 12]: 99%
- % Injury VL [4, 13]: 95%

Compound: O=C1OC(=O)c2cccc3cccc1c23 [compound 2]
- % Inhibition Corn (corn [1]; Antidote alone as seed treatment (concentration not measured)): 14.5%
- inhibition at 0.25 g/ha (corn [1]; Antidote as seed treatment (concentration not measured) with Herbicide No. 1 at 0.25 G/ha): 14.1%
- inhibition at 0.74 g/ha (corn [1]; Antidote as seed treatment (concentration not measured) with Herbicide No. 1 at 0.74 G/ha): 27.3%
- inhibition at 2.5 g/ha (corn [1]; Antidote as seed treatment (concentration not measured) with Herbicide No. 1 at 2.5 G/ha): 16.7%
- inhibition at 0.25 g/ha (corn [1]; Antidote as seed treatment (concentration not measured) with Herbicide No. 2 at 0.25 G/ha): 8%
- inhibition at 0.74 g/ha (corn [1]; Antidote as seed treatment (concentration not measured) with Herbicide No. 2 at 0.74 G/ha): 24.9%
- inhibition at 2.5 g/ha (corn [1]; Antidote as seed treatment (concentration not measured) with Herbicide No. 2 at 2.5 G/ha): 19%
- inhibition at 0.07 g/ha (corn [1]; Antidote as seed treatment (concentration not measured) with Herbicide No. 3 at 0.07 G/ha): 20.4%
- inhibition at 0.25 g/ha (corn [1]; Antidote as seed treatment (concentration not measured) with Herbicide No. 3 at 0.25 G/ha): 33.7%
- inhibition at 0.74 g/ha (corn [1]; Antidote as seed treatment (concentration not measured) with Herbicide No. 3 at 0.74 G/ha): 58.8%

Compound: CC1(C)OC(c2ccco2)CN1C(=O)C(Cl)Cl (stereo not drawn) [Antidote No. 15, Oxazolidine, 3-(dichloroacetyl)-5-(2-furanyl)-2,2-dimethyl]
- corn injury level (GR) (corn [5]; Herbicide No. 1 0.14 kg/ha + Herbicide No. 6 + Antidote No. 15): 10.3%
- corn injury level (GR) (corn [5]; Herbicide No. 1 0.28 kg/ha + Herbicide No. 6 + Antidote No. 15): 12.5%
- corn injury level (GR) (corn [5]; Herbicide No. 1 0.7 kg/ha + Herbicide No. 6 + Antidote No. 15): 8.6%
- maximum injury level (GR) (corn [5]; Herbicide No. 1 0.07 kg/ha + Herbicide No. 7 + Antidote No. 15 1:1): 22%
- corn growth reduction (GR) (corn [5]; Herbicide No. 1 0.07 kg/ha + Herbicide No. 7 + Antidote No. 15 at 1:1 to Herbicide No. 1): 7.75%
- maximum injury level (GR) (corn [5]; Herbicide No. 1 0.14 kg/ha + Herbicide No. 7 + Antidote No. 15 1:1): 26%
- corn growth reduction (GR) (corn [5]; Herbicide No. 1 0.14 kg/ha + Herbicide No. 7 + Antidote No. 15 at 1:1 to Herbicide No. 1): 9.82%
- safening of corn, assessment in words (corn [5]; field trials (PPI and PRE), under most conditions): effectively reduced corn GR injury

— patent publication EP0603240B1, “SAFENING HERBICIDAL PYRAZOLYLSULFONYLUREAS” (priority 1991, dated 1993)
